The source of these data is PubChem BioAssay (NCI).

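Following 48 hours of exposure in 96-well plates, responses at five concentrations were used to interpolate endpoints linearly. At the GI50, growth is halved. TGI denotes the concentration required for complete inhibition of growth.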

Common to all, as to test: NCI anticancer screen, dose series, 48 h
The subject of test [1] is RPMI-8226 leukemia.
The subject of test [2] is UACC-257 melanoma.
Test [3] deals with UO-31 renal.
Test [4] relates to SNB-19 CNS.
The test system of test [5] is MOLT-4 leukemia.
Test [6] relates to M14 melanoma.
The test system of test [7] is DU-145 prostate.
Test [8] relates to MDA-MB-435.
The test system of test [9] is HS 578T breast.
In test [10] the test system is T-47D breast.

For the compound `O=c1[nH]c(-c2ccccc2)nc2ccc(Cl)cc12`, the TGI in test [1], in [2], in [3], in test [4] and in [5] was over 100 µM in each case.
With `O=C(O)CNS(=O)(=O)c1ccc(NC(=O)c2ccc(F)cc2)cc1`, the TGI in [1], in [2], in [6], in [3], in test [4] and in test [5] was over 100 µM in each case.
`Nc1ccc(-c2nc3ccccc3[nH]2)c(O)c1`: the GI50 in test [7] was 38.9 µM; in test [1] it was 17 µM; in test [2], 18.6 µM; in [8] it was 28.2 µM; in [6], 30.4 µM; in [3], 43.8 µM. For the same compound, the values for the GI50 in test [4], in test [5] and in test [9] were 66.8 µM, 39.7 µM and 21.5 µM, respectively. For the same compound, the TGI is over 100 µM in [7]; 52.3 µM in [1]; 49.2 µM in test [2]; 64.6 µM in [8]; over 100 µM in [6]; over 100 µM in test [3]. In addition, the TGI in test [4] is over 100 µM; in [5], over 100 µM; in test [9] it was 71.7 µM.
Consider `O=C1O[C@H](C(Cl)(Cl)Cl)N2CCCC12` (some centres not stated), for which the TGI in test [1], in test [2], in test [6], in test [3], in test [4] and in test [5] was over 100 µM in each case.
As to `Cn1ccnc1C(c1nccn1C)C(C)(C)[N+](=O)[O-]`, the TGI in test [1], in test [2], in test [6] and in test [5] was over 100 µM in each case.
In the case of `CCOCC(=O)N[C@H]1CCc2cc(OC)c(OC)c(OC)c2-c2ccc(SC)c(=O)cc21`, the TGI in [7] was 0.0582 µM; in test [1], over 100 µM; in [2], over 100 µM; in test [8], under 0.01 µM; in test [6], over 100 µM; in test [3] it was over 100 µM. The TGI is over 100 µM in test [10], over 100 µM in [4] and over 62.6 µM in test [5].
`C=CCC12CCC(=O)C=C1CCC1(C2)OCCO1` (configuration not stated): the TGI in [1], in test [2], in test [6], in test [3], in [4] and in test [5] was over 100 µM throughout.
Regarding `Nc1ccc(N=Nc2ccccc2)c(N)n1`, the GI50 is 25.2 µM in test [7]; 36.2 µM in test [1]; 38.6 µM in test [2]; 22.4 µM in [8]; 29.4 µM in test [6]; 13.7 µM in test [3]. The GI50 in test [10] was 23.4 µM; in test [4], 40.7 µM; in [5], 35.4 µM. Besides, the TGI is 81 µM in test [7]; over 100 µM in [1]; over 100 µM in test [2]; 80.1 µM in test [8]; 74.9 µM in test [6]; 43 µM in test [3]. In addition, the TGI in test [10], in test [4] and in [5] was over 100 µM throughout.
With `NC1CCCCC1N.O=C([O-])P(=O)([O-])[O-].[Na+].[Pt+4]` (configuration not stated), the GI50 in test [1] is 22.2 µM; in [2], over 100 µM; in test [6] it was over 100 µM; in test [3] it was over 100 µM; in [4], over 100 µM; in [5] it was 29.1 µM. Besides, the TGI in test [1], in test [2], in [6], in test [3], in test [4] and in test [5] was over 100 µM in each case.
Consider `COc1ccccc1/C=C1\CCC(CNc2ccc(Cl)cc2)C1=O` (configuration not stated), for which the TGI in test [1] was 6.72 µM; in test [2] it was 26.7 µM; in [6], 9.72 µM; in test [3] it was 16.1 µM; in [4], 25 µM; in [5], 27.4 µM.
In the case of `CC1=C(C)CC2(SC1)C(=O)c1ccccc1C2=O`, the TGI in [1], in test [2], in test [6], in test [3], in test [4] and in test [5] was over 100 µM in each case.
Take `Cc1ccc(C(=O)O/N=C2/CCCCC2CN(C)C)cc1` (configuration not stated): the TGI in test [1], in test [2], in [6], in test [3] and in test [5] was over 100 µM each time.
As to `O=C1CCC2CCc3cccc4oc1c2c34` (configuration not stated), the TGI in test [1], in test [2], in test [6], in [4] and in test [5] was over 100 µM throughout.
As for `Oc1ccc2occ3c2c1CCC3`, the TGI in test [1], in test [2], in test [6], in [4] and in test [5] was over 100 µM throughout.
With `CN(C)c1ccc(/C=C/C(=O)C(C)(C)C)cc1Br`, the TGI is 58.7 µM in test [1]; 61.9 µM in test [2]; 43.2 µM in test [6]; over 100 µM in [3]; over 100 µM in test [4]; 71.7 µM in test [5].
With `O=S(=O)([O-])[O-].[Cl-].[NH2-].[NH2-].[NH2-].[NH2-].[Ru+3].c1ccc(-c2cccnc2)cc1`, the GI50 in [1], in [2], in test [6], in test [3] and in test [5] was over 100 µM in each case. In addition, the TGI in test [1], in [2], in [6], in [3] and in test [5] was over 100 µM each time.
